Source: patent US20090023685A1, “Nebulized or Sprayed Cidofovir for Recurrent Respiratory Papillomatosis” (priority 2007, published 2009)
“Also recorded” adds a separate entry of the source.

System: Recurrent Respiratory Papillomatosis due to Human Papillomavirus subtype 6 (HPV-6)
Test: Case report: systemic, topical and nebulized cidofovir in a young child with recurrent respiratory papillomatosis
Type: in vivo
Protocol: We decided that applying cidofovir using a flexible bronchoscope and a cytology brush soaked in cidofovir would be a reasonable method to attempt to deliver the drug to the papillomas. We used the intravenous form of the drug, diluted to the concentration used in the gel based formula.
Therefore, we made a 4 ml solution at the same concentration we were using for the topical application.
Therefore, we elected to nebulize the drug (Cidofovir 10 mg/ml in NS, 4 cc, 3 times/week).
Background: a person is an ex-prem (24 week GA) born to a mom who had antenatal bleeding and had been given steroids prior to delivery. Their postnatal course was complicated by Respiratory distress syndrome (mechanical ventilation for 52 days, CPAP for 28 days and O2 for 30 days), a patent ductus arteriousus (indomethacin & surgical ligation), hemodynamic instability necessitating inotropic support and renal failure. Following discharge home a person had severe GERD, (L) inguinal hernia repair and was described to have colic.
Presentation: At 10½ months of age, they presented to the Children's Hospital Emergency Room with increasing difficulties breathing. […] They were admitted to hospital and subsequently transferred to the Pediatric intensive care unit. They were diagnosed with upper airway obstruction and treated with Heliox (80:20) and nebulized racemic epinephrine. […] They underwent tracheostomy.
Initial management: Suspension laryngoscopy with CO2 laser for debulking papillomas was performed ×6 (locally) and ×2 (larger tertiary centre) (FIG. 1b). […] Palliation was discussed with the […].
Adjuvant therapy: Medical management was initiated 6 months into treatment.
Topical and nebulized cidofovir: The patient was started on topically applied cidofovir via flexible bronchoscopy q2 weeks in addition to continuing the intravenous (systemic) dose. A cytology brush was soaked in cidofovir 10 mg/ml solution and advanced via the bronchoscope to the lower airway papillomas (FIG. 2a). We elected to start nebulized cidofovir to reduce the frequency of Bronchoscopic procedures and to intensify treatment. […] After 6 months of nebulized cidofovir, the dose was reduced to 2× weekly.
Current status: A large papilloma was surgically debulked (microdebridment) and topical cidofovir was topically applied to the base of the lesion. […] undergoes surveillance bronchoscopy q3 months and continues on nebulized cidofovir 5 mg/ml, 4 cc 2× weekly (FIGS. 2c and 3b).

Structure (SMILES): Nc1ccn(C[C@@H](CO)OCP(=O)(O)O)c(=O)n1 [cidofovir]
- current disease status (after nebulized cidofovir, surgical debulking of a large papilloma and topical cidofovir to its base): papilloma free; also recorded: Her disease has remitted
- effect on papillomatosis (intravenous (systemic) cidofovir 4.1 mg/kg/dose every 4 weeks): without effect
- effect in the lung (CT scans) (nebulized cidofovir): improvement in the lung
- complications / side effects (nebulized cidofovir 10 mg/ml, 4 ml (total dose 40 mg), 3× weekly): bleeding (dose dependent & related to infection with bacteria; also recorded: cough
- complications / side effects (nebulized cidofovir 10 mg/ml, 4 ml (total dose 40 mg), 3× weekly, listed as Cidofovir): hemoptysis; also recorded: bleeding and protracted airways inflammation
- complications / side effects (nebulized cidofovir after the dose was reduced (5 mg/ml; later 2 times/week)): resolution of the complications
- complications / side effects (nebulized cidofovir after the dose was reduced (5 mg/ml; later 2 times/week), listed as Cidofovir): without complications
- effect on lower airway papillomas (nebulized cidofovir in saline, 4 ml, 2-3 times/week): worked well; also recorded: reduction of the burden of the papillomas
- effect on lower airway papillomas (nebulized cidofovir in saline, 4 ml, 2-3 times/week, listed as Cidofovir): lower airway lesions have visually disappeared
- papillomas in the main airway (trachea) (nebulized cidofovir, droplet size 2-4 microns): remained large
- course of disease (systemic cidofovir q2 weeks plus Interferon α2b 5 MU/m^2 3× weekly, listed as Cidofovir): did not halt the progression of the disease
- course of lesions (systemic cidofovir stepped down to q3 weeks (with Interferon α2b)): the lesions worsened
- effect on lower airway papillomas (topical cidofovir (10 mg/ml, thickened with sterile glycerine) applied by cytology brush via flexible bronchoscopy every 2 weeks): worked to reduce the size of the papillomas
- effect on lower airway papillomas (topical cidofovir (10 mg/ml, thickened with sterile glycerine) applied by cytology brush via flexible bronchoscopy every 2 weeks, listed as Cidofovir): The lesions regressed
